Patent US12528816B2, “Substituted imidazo [1,2-b] pyridazines and [1, 2, 4] triazolo [ 4,3-b] pyridazines as camkii inhibitors” (Cardurion Pharmaceuticals, INC., priority 2020, dated 2026)

target: T1, human CaMKIIδ (Homo sapiens, UniProt Q13557); experiment: Evaluation of in vitro CaMKII inhibitory activity (binding assay, TR-FRET); conditions: human CaMKIIδ, TR-FRET binding assay; class symbols A/B/C; read-out: Act (CaMKII inhibitory activity, binding assay)
T1 construct: Full-length, glutathione-S-transferase(GST)-tagged, human CaMKIIδ was purchased from Carna Biosciences; purchased Carna Biosciences (CaMKIIδ); Wako Pure Chemical Industries (calmodulin) 02-111
How it was run: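 Inhibitors, in eight concentrations of 4-fold dilution, were incubated 1 h at room temperature with a protein–fluorescent probe premix preformed 30 min on ice, containing calmodulin and terbium anti-GST antibody. Displacement read by TR-FRET in duplicate; IC50 by logistic fitting.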

Row | Compound | IC50
1 | C[C@@H](Cn1cnnn1)Oc1cncc(-c2ccc3ncc(-c4nccc(C(F)F)c4C#N)n3n2)n1 [compound 471] | > 100 nM
2 | CC[C@@H](Cn1cnnn1)Oc1cc(-c2ccc3ncc(-c4nccc(OC)c4C#N)n3n2)ccc1F [compound 476] | < 10 nM
3 | COc1ccnc(-c2cnc3ccc(-c4ccc(F)c(N(C)[C@@H](C)Cn5cnnn5)c4)nn23)c1C#N [compound 479] | > 100 nM
4 | COc1cc(F)cc(-c2cnc3ccc(-c4cccc(N[C@@H](C)Cn5cnnn5)n4)nn23)c1C#N [compound 480] | < 10 nM
5 | COc1cc(F)cc(-c2cnc3ccc(-c4cc(N[C@@H](C)Cn5cnnn5)ccn4)nn23)c1C#N [compound 481] | < 10 nM
6 | COc1cc(F)cc(-c2cnc3ccc(-c4cncc(N[C@@H](C)Cn5cnnn5)c4)nn23)c1C#N [compound 482] | < 10 nM
7 | C[C@@H](Cn1cnnn1)Nc1ccnc(-c2ccc3ncc(-c4cc(F)ccc4C#N)n3n2)c1 [compound 483] | < 10 nM
8 | C[C@@H](Cn1cnnn1)Nc1cncc(-c2ccc3ncc(-c4cc(F)ccc4C#N)n3n2)n1 [compound 484] | < 10 nM
9 | C[C@@H](Cn1cnnn1)Nc1cc(-c2ccc3ncc(-c4ncccc4C#N)n3n2)ccc1F [compound 485] | < 10 nM
10 | COc1ccnc(-c2cnc3ccc(-c4cc(O[C@@H](C)Cn5cnnn5)ccn4)nn23)c1C#N [compound 486] | 10 to 100 nM

same assay, conditions: in vitro CaMKII inhibitory activity (binding assay), human CaMKIIδ; read-out: Act

Row | Compound | IC50
11 | C[C@@H](Cn1cnnn1)Oc1cccc(-c2ccc3ncc(-c4ccc(F)c(F)c4C#N)n3n2)n1 [compound 460] | 10 to 100 nM
12 | C[C@@H](Cn1cnnn1)Oc1cccc(-c2ccc3ncc(-c4c(F)cccc4C#N)n3n2)n1 [compound 461] | 10 to 100 nM
13 | COCc1cc(F)cc(-c2cnc3ccc(-c4cccc(O[C@@H](C)Cn5cnnn5)n4)nn23)c1C#N [compound 462] | < 10 nM
14 | COc1cc(-c2cnc3ccc(-c4cccc(O[C@@H](C)Cn5cnnn5)n4)nn23)c(C#N)cn1 [compound 463] | < 10 nM
15 | C[C@@H](Cn1cnnn1)Oc1cccc(-c2ccc3ncc(-c4cc(=O)[nH]cc4C#N)n3n2)n1 [compound 464] | < 10 nM
16 | C[C@@H](Cn1cnnn1)Oc1cccc(-c2ccc3ncc(-c4cc(=O)n(C)cc4C#N)n3n2)n1 [compound 465] | < 10 nM
17 | C[C@@H](Cn1cnnn1)Oc1cccc(-c2ccc3ncc(-c4ccc(C#N)c(F)n4)n3n2)c1 [compound 468] | < 10 nM
18 | COCCOc1ccnc(-c2cnc3ccc(-c4cccc(O[C@@H](C)Cn5cnnn5)c4)nn23)c1C#N [compound 469] | < 10 nM
19 | COc1cncc(-c2cnc3ccc(-c4ccc(F)c(O[C@@H](C)Cn5cnnn5)c4)nn23)c1C#N [compound 470] | < 10 nM
